How the values were obtained:
[1] = Drug concentration in bile duct-cannulated CD1 mouse bile at 40 mg/kg, po after 24 hrs; format: ADME, organism-based; design: dose 40 mg/kg, route oral; details: read-out: Drug uptake
[2] = system: Rattus norvegicus; test: Biodistribution in orally dosed Sprague-Dawley rat urine assessed as 17-hydroxy muraglitazar level by LC/MS analysis; format: ADME, organism-based; details: in vivo, po
[3] = system: Rattus norvegicus; test: Biodistribution in orally dosed Sprague-Dawley rat feces assessed as 17-hydroxy muraglitazar level by LC/MS analysis; format: ADME, organism-based; details: in vivo, po, pooled result: one value given for 6 cell lines, strains, targets or settings
[4] = Biodistribution in orally dosed human urine assessed as 17-hydroxy muraglitazar level by LC/MS analysis; format: ADME, organism-based; details: in vivo, po
[5] = system: Rattus norvegicus; test: Biodistribution in orally dosed Sprague-Dawley rat urine assessed as muraglitazar glucuronide level by LC/MS analysis; format: ADME, organism-based; details: in vivo, po
[6] = Biodistribution in orally dosed human feces assessed as O-demethyl muraglitazar level by LC/MS analysis; format: ADME, organism-based; details: in vivo, po
[7] = system: Hepatocyte; test: Metabolic stability in Sprague-Dawley rat hepatocytes assessed as 8,12-dihydroxy muraglitazar level by LC/MS analysis relative to control; format: ADME, cell-based
[8] = system: Hepatocyte; test: Metabolic stability in Sprague-Dawley rat hepatocytes assessed as 17-hydroxy-O-demethyl muraglitazar level by LC/MS analysis relative to control; format: ADME, cell-based
[9] = system: Hepatocyte; test: Metabolic stability in Sprague-Dawley rat hepatocytes assessed as O-dealkyl-O-demethyl muraglitazar level by LC/MS analysis relative to control; format: ADME, cell-based
[10] = Metabolic stability in cynomolgus monkey hepatocytes assessed as muraglitazar 12-carboxylic acid level by LC/MS analysis relative to control; format: ADME, cell-based, Macaca fascicularis, Hepatocyte
[11] = Metabolic stability in cynomolgus monkey hepatocytes assessed as hydroxyl muraglitazar glucuronide level by LC/MS analysis relative to control; format: ADME, cell-based, Macaca fascicularis, Hepatocyte
[12] = system: Hepatocyte; test: Metabolic stability in human hepatocytes assessed as 9-hydroxy-O-demethyl muraglitazar level by LC/MS analysis relative to control; format: ADME, cell-based
[13] = system: Hepatocyte; test: Metabolic stability in human hepatocytes assessed as 8-hydroxy muraglitazar level by LC/MS analysis relative to control; format: ADME, cell-based
[14] = system: Hepatocyte; test: Metabolic stability in human hepatocytes assessed as 12-hydroxy muraglitazar level by LC/MS analysis relative to control; format: ADME, cell-based
[15] = Biodistribution in orally dosed cynomolgus monkey feces assessed as muraglitazar glucuronide level by LC/MS analysis; format: ADME, organism-based, Macaca fascicularis; details: in vivo, po
[16] = Biodistribution in orally dosed Beagle dog feces assessed as 9-hydroxy muraglitazar level by LC/MS analysis; format: ADME, organism-based, Canis lupus familiaris; details: in vivo, po
[17] = Biodistribution in orally dosed human feces assessed as acetylimide derivative of muraglitazar level by LC/MS analysis; format: ADME, organism-based; details: in vivo, po
[18] = Metabolic stability in CD1 mouse hepatocytes assessed as 8-hydroxy muraglitazar level by LC/MS analysis relative to control; format: ADME, cell-based, Hepatocyte
[19] = Metabolic stability in CD1 mouse hepatocytes assessed as di-oxygenated muraglitazar level by LC/MS analysis relative to control; format: ADME, cell-based, Hepatocyte
[20] = system: Hepatocyte; test: Metabolic stability in Sprague-Dawley rat hepatocytes assessed as O-Dealkyl muraglitazar level by LC/MS analysis relative to control; format: ADME, cell-based
[21] = Biodistribution in orally dosed cynomolgus monkey urine assessed as 12,17-dihydroxy muraglitazar level by LC/MS analysis; format: ADME, organism-based, Macaca fascicularis; details: in vivo, po
[22] = system: Rattus norvegicus; test: Biodistribution in orally dosed Sprague-Dawley rat feces assessed as 8-hydroxy muraglitazar level by LC/MS analysis; format: ADME, organism-based; details: in vivo, po
[23] = Biodistribution in orally dosed cynomolgus monkey urine assessed as 8-hydroxy muraglitazar level by LC/MS analysis; format: ADME, organism-based, Macaca fascicularis; details: in vivo, po
[24] = Drug concentration in cynomolgus monkey urine assessed as recovery of radioactive dose at 2 mg/kg, po after 168 hrs; format: ADME, organism-based, Macaca fascicularis; design: dose 2 mg/kg, route oral; details: in vivo
[25] = Drug concentration in human urine assessed as recovery of radioactive dose at 20 mg, po after 240 hrs; format: ADME, organism-based; details: in vivo
[26] = system: Hepatocyte; test: Metabolic stability in Sprague-Dawley rat hepatocytes assessed as radioactivity recovaries at 25.6 ug/mL after 4 hrs; format: ADME, cell-based
[27] = Fecal excretion rate in orally dosed Sprague-Dawley rat within 48 hrs; format: ADME, organism-based; details: faeces, po, read-out: Activity
[28] = Fecal excretion rate in orally dosed Beagle dog within 24 hrs; format: ADME, organism-based, Canis lupus familiaris; details: faeces, po, read-out: Activity
[29] = Fecal excretion of compound in orally dosed human within 48 hrs; format: ADME, organism-based; details: faeces, po, read-out: Activity
[30] = system: Plasma; test: Biodistribution in orally dosed Sprague-Dawley rat plasma assessed as muraglitazar glucuronide level after 12 hrs by LC/MS analysis; format: ADME, organism-based; details: in vivo, po
[31] = system: Plasma; test: Biodistribution in orally dosed cynomolgus monkey plasma assessed as muraglitazar glucuronide level after 12 hrs by LC/MS analysis; format: ADME, organism-based, Macaca fascicularis; details: in vivo, po
[32] = system: Plasma; test: Biodistribution in orally dosed human plasma assessed as muraglitazar glucuronide level after 4 hrs by LC/MS analysis; format: ADME, organism-based; details: in vivo, po
[33] = system: Plasma; test: Biodistribution in orally dosed Sprague-Dawley rat plasma assessed as O-demethyl muraglitazar level after 4 hrs by LC/MS analysis; format: ADME, organism-based; details: in vivo, po
[34] = system: Plasma; test: Biodistribution in orally dosed Sprague-Dawley rat plasma assessed as O-demethyl muraglitazar level after 12 hrs by LC/MS analysis; format: ADME, organism-based; details: in vivo, po
[35] = system: Plasma; test: Biodistribution in orally dosed Beagle dog plasma assessed as O-demethyl muraglitazar level after 4 hrs by LC/MS analysis; format: ADME, organism-based, Canis lupus familiaris; details: in vivo, po
[36] = system: Plasma; test: Biodistribution in orally dosed human plasma assessed as O-demethyl muraglitazar level after 4 hrs by LC/MS analysis; format: ADME, organism-based; details: in vivo, po
[37] = Drug concentration in bile duct-cannulated CD1 mouse feces assessed as recovery of radioactive dose at 1 mg/kg, po after 24 hrs; format: ADME, organism-based; design: dose 1 mg/kg, route oral; details: in vivo
[38] = Drug concentration in bile duct-cannulated CD1 mouse bile assessed as recovery of radioactive dose at 40 mg/kg, po after 24 hrs; format: ADME, organism-based; design: dose 40 mg/kg, route oral; details: in vivo
[39] = system: Plasma; test: Biodistribution in orally dosed human plasma assessed as 12,17-dihydroxy muraglitazar level after 4 hrs by LC/MS analysis; format: ADME, organism-based; details: in vivo, po
[40] = system: Plasma; test: Biodistribution in orally dosed Sprague-Dawley rat plasma assessed as […] muraglitazar level after 12 hrs by LC/MS analysis; format: ADME, organism-based; details: in vivo, po
[41] = system: Plasma; test: Biodistribution in orally dosed Beagle dog plasma assessed as 12-dihydroxy muraglitazar level after 1 hr by LC/MS analysis; format: ADME, organism-based, Canis lupus familiaris; details: in vivo, po
[42] = system: Plasma; test: Biodistribution in orally dosed cynomolgus monkey plasma assessed as 12-dihydroxy muraglitazar level after 1 hr by LC/MS analysis; format: ADME, organism-based, Macaca fascicularis; details: in vivo, po
[43] = system: Plasma; test: Biodistribution in orally dosed cynomolgus monkey plasma assessed as 12-dihydroxy muraglitazar level after 12 hrs by LC/MS analysis; format: ADME, organism-based, Macaca fascicularis; details: in vivo, po
[44] = system: Plasma; test: Biodistribution in orally dosed Beagle dog plasma assessed as 17-dihydroxy muraglitazar level after 1 hr by LC/MS analysis; format: ADME, organism-based, Canis lupus familiaris; details: in vivo, po
[45] = system: Plasma; test: Biodistribution in orally dosed Beagle dog plasma assessed as O-Dealkyl muraglitazar level after 4 hrs by LC/MS analysis; format: ADME, organism-based, Canis lupus familiaris; details: in vivo, po
[46] = system: Plasma; test: Biodistribution in orally dosed cynomolgus monkey plasma assessed as O-Dealkyl muraglitazar level after 1 hr by LC/MS analysis; format: ADME, organism-based, Macaca fascicularis; details: in vivo, po
[47] = system: Plasma; test: Biodistribution in orally dosed human plasma assessed as O-Dealkyl muraglitazar level after 12 hrs by LC/MS analysis; format: ADME, organism-based; details: in vivo, po
[48] = system: Plasma; test: Biodistribution in orally dosed Sprague-Dawley rat plasma assessed as 12,17-dihydroxy muraglitazar level after 12 hrs by LC/MS analysis; format: ADME, organism-based; details: in vivo, po
[49] = system: Cynomolgus monkey; test: Cmax in cynomolgus monkey at 1.9 mg/kg, po after 24 hrs; format: ADME, organism-based, Macaca fascicularis; design: dose 1.9 mg/kg, route oral; details: in vivo
[50] = system: Homo sapiens; test: AUC (0 to T) in human at 10 mg, po after 72 hrs; format: ADME, organism-based, Plasma; design: dose 10 mg, time < 72 hr, route oral; details: in vivo
[51] = Biodistribution in orally dosed cynomolgus monkey feces assessed as 8-hydroxy-O-demethyl muraglitazar level by LC/MS analysis; format: ADME, organism-based, Macaca fascicularis; details: in vivo, po
[52] = system: Rattus norvegicus; test: Biodistribution in orally dosed Sprague-Dawley rat urine assessed as 8,12-dihydroxy muraglitazar level by LC/MS analysis; format: ADME, organism-based; details: in vivo, po

Structure (SMILES): COc1ccc(OC(=O)N(CC(=O)O)Cc2ccc(OCCc3nc(-c4ccccc4)oc3C)cc2)cc1 [MURAGLITAZAR]
- dose excreted at 24 h [1]: 13.2%
- Drug uptake [2]: < 0.01%
- Drug uptake [3]: 0.88%
- Drug uptake [4]: 0.07%
- Drug uptake [5]: < 0.01%
- Drug uptake [6]: 3.33%
- Drug uptake [7]: < 0.2%
- Drug uptake [8]: < 0.2%
- Drug uptake [9]: 0.3%
- Drug uptake [10]: 13%
- Drug uptake [11]: 2.8%
- Drug uptake [12]: < 0.2%
- Drug uptake [13]: < 0.2%
- Drug uptake [14]: 1.9%
- Drug uptake [15]: 0.8%
- Drug uptake [16]: 0.85%
- Drug uptake [17]: 3.21%
- Drug uptake [18]: 0.3%
- Drug uptake [19]: 1.4%
- Drug uptake [20]: 12%
- Drug uptake [21]: 0.13%
- Drug uptake [22]: 4.39%
- Drug uptake [23]: 0.12%
- Drug uptake [24]: 3.7%
- Drug uptake [25]: 3.7%
- Stability [26]: 96.5%
- dose excreted at 48 h [27]: 95%
- dose excreted at 24 h [28]: 85%
- dose excreted at 48 h [29]: 25%
- Drug uptake [30]: 0.05%
- Drug uptake [31]: 0.1%
- Drug uptake [32]: 4.2%
- Drug uptake [33]: 2.1%
- Drug uptake [34]: 3.5%
- Drug uptake [35]: 3%
- Drug uptake [36]: 0.5%
- Drug uptake [37]: 8.2%
- Drug uptake [38]: 66%
- Drug uptake [39]: < 0.05%
- Drug uptake [40]: < 0.05%
- Drug uptake [41]: 1%
- Drug uptake [42]: 0.9%
- Drug uptake [43]: 0.4%
- Drug uptake [44]: < 0.05%
- Drug uptake [45]: 3%
- Drug uptake [46]: 0.3%
- Drug uptake [47]: 0.2%
- Drug uptake [48]: < 0.05%
- Cmax [49]: 7.1 ugequiv/ml
- AUC [50]: 9 ugequiv.h/ml
- Drug uptake [51]: 1.29%
- Drug uptake [52]: < 0.01%
